The values that follow come from patent publication US20070082892A1, “Benzotriazepine derivatives and their use as gastrin and cholecystokinin receptor ligands” (James Black Foundation Limited, priority 2003, published 2007).

What is called Ki is a dissociation constant, usually derived from enzyme kinetics or from competition with a known ligand. High values mean weaker binding, low ones tighter binding.

For assay [1], the target named is T1, human CCK1-receptor (Homo sapiens, UniProt P32238).
T1 construct: expressed in transfected cells; host or cells: CHO-K1
T1 sequence (P32238 1-428): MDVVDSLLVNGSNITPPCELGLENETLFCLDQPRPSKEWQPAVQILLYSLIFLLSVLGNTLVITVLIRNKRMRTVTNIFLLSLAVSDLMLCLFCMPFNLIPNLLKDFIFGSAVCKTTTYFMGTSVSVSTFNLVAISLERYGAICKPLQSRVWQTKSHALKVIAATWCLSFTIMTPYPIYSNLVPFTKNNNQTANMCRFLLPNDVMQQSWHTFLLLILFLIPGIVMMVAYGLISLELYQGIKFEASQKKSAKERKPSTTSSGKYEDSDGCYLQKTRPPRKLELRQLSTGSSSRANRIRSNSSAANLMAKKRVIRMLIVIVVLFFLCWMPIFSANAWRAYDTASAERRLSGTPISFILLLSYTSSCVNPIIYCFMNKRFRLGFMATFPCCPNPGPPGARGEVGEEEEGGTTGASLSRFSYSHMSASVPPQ
Briefly: CCK1 radioligand binding, displacement of [3H]-L-364,718 in CHO-K1 cells. Particulars: displacement of [3H]-L-364,718, CHO-K1 cells with cloned human CCK1 receptor; S.E.M's on pKi are ±≦0.1. The protocol: The CCK1 activity of the ligands was assessed in a radioligand binding study, looking at the displacement of [^3H]-L-364,718 from sites in CHO-K1 cells into which the human CCK1-receptor sequence has been cloned. S.E.M's on pKi are ±≦0.1

In assay [2] the target is T2, gastrin (CCK2) receptor (Rattus norvegicus, UniProt P30553).
T2 construct: The oesophagus of immature rats (33-50 g, ca. 21 days old) was ligated; from tissue; host or cells: isolated whole stomach of immature rats
T2 sequence (P30553 1-452): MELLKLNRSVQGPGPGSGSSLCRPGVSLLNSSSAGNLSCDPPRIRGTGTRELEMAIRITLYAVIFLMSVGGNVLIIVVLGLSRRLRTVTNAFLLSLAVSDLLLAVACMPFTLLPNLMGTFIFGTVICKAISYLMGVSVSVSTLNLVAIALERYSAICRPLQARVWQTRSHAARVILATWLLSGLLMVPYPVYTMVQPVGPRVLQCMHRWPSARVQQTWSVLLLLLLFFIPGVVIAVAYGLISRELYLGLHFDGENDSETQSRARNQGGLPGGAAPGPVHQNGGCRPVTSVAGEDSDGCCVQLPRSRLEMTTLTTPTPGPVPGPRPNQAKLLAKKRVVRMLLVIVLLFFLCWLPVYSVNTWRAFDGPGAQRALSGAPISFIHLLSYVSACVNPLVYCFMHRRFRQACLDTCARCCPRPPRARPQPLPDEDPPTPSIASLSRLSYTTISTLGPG
The assay can be described thus: gastrin (CCK2) antagonist activity in an immature rat stomach assay (pentagastrin-stimulated acid secretion). Particulars: isolated immature rat stomach, 60 min incubation, cumulative pentagastrin dose-response curves; read-out: CCK2 pKB ± sem (converted).
Method: Certain compounds of the examples were tested for gastrin (CCK2) antagonist activity in an immature rat stomach assay.
The oesophagus of immature rats (33-50 g, ca. 21 days old) was ligated at the level of the cardiac sphincter and the duodenal sphincter was cannulated. The stomach was excised and flushed with ca. 1 ml of unbuffered physiological saline solution. The fundus was punctured and cannulated. A further 4-5 ml of unbuffered solution was flushed through the stomach to ensure the preparation was not leaking. […] The stomach was continuously perfused at a rate of 1 ml min^−1 with unbuffered solution gassed with 100% O2 with the perfusate passing over an internally referenced pH-electrode fixed 12 cm above the stomach.
After 120 min of stabilisation the drugs were added directly to the serosal solution in the organ bath and after a further 60 min cumulative pentagastrin dose-response curves were started.

Bounds are passed on as bounds.

For `CN(c1cccc(NC(=O)CN2C(=O)N(CC(=O)C(C)(C)C)c3ccccc3N(C3CCCCC3)C2=O)c1)c1nn[nH]n1` [Example 16, 2-[1-Cyclohexyl-5-(3,3-dimethyl-2-oxo-butyl)-2,4-dioxo-1,2,4,5-tetrahydro-1,3,5-benzotriazepin-3-yl]-N-{3-[methyl-(2H-tetrazol-5-yl)-amino]-phenyl}-acetamide], in assay [1], the Ki was 2 µM.

`Cc1nc(-c2cccc(NC(=O)CN3C(=O)N(CC(=O)C(C)(C)C)c4ccccc4N(C4CCCCC4)C3=O)c2)cs1` [Example 15, 2-[1-Cyclohexyl-5-(3,3-dimethyl-2-oxo-butyl)-2,4-dioxo-1,2,4,5-tetrahydro-1,3,5-benzotriazepin-3-yl]-N-[3-(2-methyl-thiazol-4-yl)-phenyl]-acetamide] gave an inhibition constant (Ki) in assay [1] of 1.58 µM.

In assay [1], `CC(C)(C)C(=O)CN1C(=O)N(CC(=O)Nc2cccc(SCC(=O)OCc3ccccc3)c2)C(=O)N(C2CCCCCC2)c2ccccc21` [Example 10] showed an inhibition constant (Ki) of 0.1 µM. Moreover, the Kb in assay [2] was 0.00676 µM.

In turn, `CC(C)(C)C(=O)CN1C(=O)N(CC(=O)Nc2cccc(CC(=O)O)c2)C(=O)N(C2CCCCCC2)c2ccccc21` [Example 8, (3-{2-[1-Cycloheptyl-5-(3,3-dimethyl-2-oxo-butyl)-2,4-dioxo-1,2,4,5-tetrahydro-1,3,5-benzotriazepin-3-yl]-acetylamino}-phenyl)-acetic acid] had an inhibitory constant (Ki) in assay [1] of 3.98 µM. Besides, the Kb in assay [2] is 0.0437 µM.

In the case of `CC(C)(C)C(=O)CN1C(=O)N(CC(=O)Nc2cccc(SCC(=O)O)c2)C(=O)N(C2CCCCCC2)c2ccccc21` [Example 11, (3-{2-[1-Cycloheptyl-5-(3,3-dimethyl-2-oxo-butyl)-2,4-dioxo-1,2,4,5-tetrahydro-1,3,5-benzotriazepin-3-yl]-acetylamino}-phenylsulfanyl)-acetic acid], the inhibitory constant (Ki) in assay [1] is 0.251 µM. Further, the Kb in assay [2] was 0.00447 µM.

Turning to `CC(C)(C)C(=O)CN1C(=O)N(CCCC(=O)Nc2cccc(-c3nc(=O)o[nH]3)c2)C(=O)N(C2CCCCC2)c2ccccc21` [Example 19, 4-[1-Cyclohexyl-5-(3,3-dimethyl-2-oxo-butyl)-2,4-dioxo-1,2,4,5-tetrahydro-1,3,5-benzotriazepin-3-yl]-N-[3-(5-oxo-2,5-dihydro-[1,2,4]oxadiazol-3-yl)-phenyl]-butyramide], in assay [2], the Kb was 0.0871 µM.

Turning to `CNc1cccc(NC(=O)CN2C(=O)N(CC(=O)C(C)(C)C)c3ccccc3N(C3CCCCC3)C2=O)c1` [Example 13, 2-[1-Cyclohexyl-5-(3,3-dimethyl-2-oxo-butyl)-2,4-dioxo-1,2,4,5-tetrahydro-1,3,5-benzotriazepin-3-yl]-N-(3-methylamino-phenyl)-acetamide], the Ki in assay [1] was 2.51 µM. Moreover, the Kb in assay [2] is 0.0195 µM.

With `CC(C)(C)C(=O)CN1C(=O)N(CC(=O)Nc2cccc(-c3nc(=O)o[nH]3)c2)C(=O)N(C2CCCCCC2)c2ccccc21` [Example 12, 2-[1-Cycloheptyl-5-(3,3-dimethyl-2-oxo-butyl)-2,4-dioxo-1,2,4,5-tetrahydro-1,3,5-benzotriazepin-3-yl]-N-[3-(5-oxo-2,5-dihydro-[1,2,4]-oxadiazol-3-yl)-phenyl]-acetamide], the affinity in assay [1], expressed as Ki, was 0.126 µM. Moreover, the Kb in assay [2] is 0.00324 µM.

In assay [1], `O=C(CN1C(=O)N(CC(=O)N2CCCC2)c2ccccc2N(c2ccccc2)C1=O)Nc1cccc(C(=O)O)c1` [Example 3, 3-{2-[2,4-Dioxo-1-(2-oxo-2-pyrrolidin-1-yl-ethyl)-5-phenyl-1,2,4,5-tetrahydro-1,3,5-benzotriazepin-3-yl]-acetylamino}-benzoic acid] gave a Ki above 10 µM. In assay [2], the Kb was 0.708 µM.

`CC(C)(C)C(=O)CN1C(=O)N(CC(=O)Nc2cccc(CCC(=O)O)c2)C(=O)N(C2CCCCC2)c2ccccc21` [Example 14, 3-(3-{2-[1-Cyclohexyl-5-(3,3-dimethyl-2-oxo-butyl)-2,4-dioxo-1,2,4,5-tetrahydro-1,3,5-benzotriazepin-3-yl]-acetylamino}-phenyl)-propionic acid] had an inhibition constant Ki in assay [1] of 2.51 µM. In assay [2], the Kb was 0.0263 µM.

In turn, `O=C(CN1C(=O)N(CC(=O)N2CCCC2)c2ccccc2N(c2ccccc2)C1=O)Nc1ccc(F)cc1` [Example 2, 2-[2,4-Dioxo-1-(2-oxo-2-pyrrolidin-1-yl-ethyl)-5-phenyl-1,2,4,5-tetrahydro-1,3,5-benzotriazepin-3-yl]-N-(4-fluoro-phenyl)-acetamide] had a Ki in assay [1] of 7.94 µM. For the same compound, in assay [2], the Kb was 2.24 µM.
